According to ChEMBL document CHEMBL2074384, “Reduced folate derivatives are endogenous substrates for cMOAT in rats” (Am J Physiol, 1998):

B1: ATP-binding cassette sub-family C member 2 (Rattus norvegicus) (protein)
chain: MDKFCNSTFWDLSLLESPEADLPLCFEQTVLVWIPLGFLWLLAPWQLYSVYRSRTKRSSITKFYLAKQVFVVFLLILAAIDLSLALTEDTGQATVPPVRYTNPILYLCTWLLVLAVQHSRQWCVRKNSWFLSLFWILSVLCGVFQFQTLIRALLKDSKSNMAYSYLFFVSYGFQIVLLILTAFSGPSDSTQTPSVTASFLSSITFSWYDRTVLKGYKHPLTLEDVWDIDEGFKTRSVTSKFEAAMTKDLQKARQAFQRRLQKSQRKPEATLHGLNKKQSQSQDVLVLEEAKKKSEKTTKDYPKSWLIKSLFKTFHVVILKSFILKLIHDLLVFLNPQLLKLLIGFVKSSNSYVWFGYICAILMFAVTLIQSFCLQSYFQHCFVLGMCVRTTVMSSIYKKALTLSNLARKQYTIGETVNLMSVDSQKLMDATNYMQLVWSSVIQITLSIFFLWRELGPSILAGVGVMVLLIPVNGVLATKIRNIQVQNMKNKDKRLKIMNEILSGIKILKYFAWEPSFQEQVQGIRKKELKNLLRFGQLQSLLIFILQITPILVSVVTFSVYVLVDSANVLNAEKAFTSITLFNILRFPLSMLPMVTSSILQASVSVDRLERYLGGDDLDTSAIRRVSNFDKAVKFSEASFTWDPDLEATIQDVNLDIKPGQLVAVVGTVGSGKSSLVSAMLGEMENVHGHITIQGSTAYVPQQSWIQNGTIKDNILFGSEYNEKKYQQVLKACALLPDLEILPGGDMAEIGEKGINLSGGQKQRVSLARAAYQDADIYILDDPLSAVDAHVGKHIFNKVVGPNGLLAGKTRIFVTHGIHFLPQVDEIVVLGKGTILEKGSYRDLLDKKGVFARNWKTFMKHSGPEGEATVNNDSEAEDDDDGLIPTMEEIPEDAASLAMRRENSLRRTLSRSSRSSSRRGKSLKNSLKIKNVNVLKEKEKEVEGQKLIKKEFVETGKVKFSIYLKYLQAVGWWSILFIILFYGLNNVAFIGSNLWLSAWTSDSDNLNGTNNSSSHRDMRIGVFGALGLAQGICLLISTLWSIYACRNASKALHGQLLTNILRAPMRFFDTTPTGRIVNRFSGDISTVDDLLPQTLRSWMMCFFGIAGTLVMICMATPVFAIIIIPLSILYISVQVFYVATSRQLRRLDSVTKSPIYSHFSETVTGLPIIRAFEHQQRFLAWNEKQIDINQKCVFSWITSNRWLAIRLELVGNLVVFCSALLLVIYRKTLTGDVVGFVLSNALNITQTLNWLVRMTSEAETNIVAVERISEYINVENEAPWVTDKRPPADWPRHGEIQFNNYQVRYRPELDLVLKGITCNIKSGEKVGVVGRTGAGKSSLTNCLFRILESAGGQIIIDGIDVASIGLHDLRERLTIIPQDPILFSGSLRMNLDPFNKYSDEEVWRALELAHLRSFVSGLQLGLLSEVTEGGDNLSIGQRQLLCLGRAVLRKSKILVLDEATAAVDLETDSLIQTTIRKEFSQCTVITIAHRLHTIMDSDKIMVLDNGKIVEYGSPEELLSNRGSFYLMAKEAGIENVNHTEL

Assays:
[1] = molecular target: T1, ATP-binding cassette sub-family C member 2 (Rattus norvegicus, UniProt Q63120); assay: TP_TRANSPORTER: inhibition of 5-methyltetrahydrofolate uptake in bile canalicular membrane vesicles from SD rat; format: functional, cell membranes, Sprague-Dawley, Bile canalicular membrane vesicle
[2] = molecular target: T1, ATP-binding cassette sub-family C member 2; assay: TP_TRANSPORTER: inhibition of DNP-SG uptake in bile canalicular membrane vesicles from SD rat; format: functional, cell membranes, Sprague-Dawley, Bile canalicular membrane vesicle
[3] = substrate: CN1c2c(nc(N)[nH]c2=O)NC[C@@H]1CNc1ccc(C(=O)N[C@@H](CCC(=O)O)C(=O)O)cc1; assay: cells, lysate or membranes named

| Molecule | Ki [2] [µM] | further results |
| --- | --- | --- |
| N[C@@H](CCC(=O)N[C@H](CSc1ccc([N+](=O)[O-])cc1[N+](=O)[O-])C(=O)NCC(=O)O)C(=O)O | – | Ki [1]: 34.5 µM |
| Nc1nc2c(c(=O)[nH]1)N1CN(c3ccc(C(=O)N[C@@H](CCC(=O)O)C(=O)O)cc3)CC1CN2 (stereo not given in full) [FOLITIXORIN] | 269 | – |
| CN1c2c(nc(N)[nH]c2=O)NC[C@@H]1CNc1ccc(C(=O)N[C@@H](CCC(=O)O)C(=O)O)cc1 [LEVOMEFOLIC ACID] | 121 | – |
| Nc1nc2c(c(=O)[nH]1)NC(CNc1ccc(C(=O)N[C@@H](CCC(=O)O)C(=O)O)cc1)CN2 (stereo not given in full) [TETRAHYDROFOLATE] | 358 | – |
| B1 | – | Km [3]: 126 µM |
